The record followed here is PubChem BioAssay (NCI).

Values joined by “and” are separate entries in the source; they are usually repeats but may differ in a detail not shown here. Equal values may be shown once.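 Exposure lasted 48 hours, with cells grown in 96-well plates and compounds tested at five concentrations. GI50 is the concentration that inhibits growth by half. Definition used: TGI = concentration required for complete inhibition of growth.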

This assay deals with MDA-MB-468 breast. In words: growth of human tumour cells (NCI), 48 h.
For `Cc1cc(-c2cc(O)ccc2Cl)cc2nnc(Nc3ccc(OCCN4CCCC4)cc3)nc12`, the GI50 was 583 nM and the TGI was found to be 2040 nM.
For the compound `C#CCN(c1ccc(C(=O)N[C@@H](CCC(=O)N[C@H](CCC(=O)O)C(=O)O)C(=O)O)cc1)C1CCc2cc3nc(CO)[nH]c(=O)c3cc21` (some centres undefined), the GI50 was greater than 23100 nM and the TGI was greater than 100000 nM.
In the case of `Cc1cc(C)c(-c2c(N)cc(Br)cc2Br)c(N)c1`, the GI50 is 2240 nM and the TGI stood at 5760 nM.
On to `CSc1nc2c(c(=O)n1C)CN(C1CCCCC1)C(=O)C(c1ccccc1)N2` (centres undefined), for which the GI50 is 52200 nM and the TGI was greater than 100000 nM.
Consider `CC(=O)c1cc(C(=O)c2ccc3c(c2)Sc2ccccc2N3)n2ccccc12`, for which the GI50 was 2.56 nM and 3.32 nM.
For `CN1CCN(Cc2ccc(NC(=O)c3cncc(C#Cc4cnc(N)c5cccnc45)c3)cc2C(F)(F)F)CC1`, the GI50 is 698 nM and the TGI is greater than 50000 nM.
Regarding `Cc1cc(Nc2cc(N3CCN(C)CC3)nc(/C=C/c3ccccc3)n2)n[nH]1`, the GI50 is 590 nM and the TGI came out at 2440 nM.
For `CN1CCN(C(=O)COc2ccc(/C=C3\CC4C5CC=C6CC(Cl)CCC6(C)C5CCC4(C)C3=O)cc2)CC1` (centres undefined), the GI50 is 6030 nM and the TGI is greater than 100000 nM.
As to `COc1ccc([C@@]23Oc4cc(OC)cc(OC)c4[C@]2(O)[C@H](O)[C@H](C(N)=O)[C@H]3c2ccccc2)cc1`, the GI50 is less than 10 nM and the TGI worked out at 45.8 nM.
The like results for `CC(=O)[C@H]1CCC/C=C/[C@@H]2C[C@H](O)C[C@H]2[C@H](O)/C=C/C(=O)O1` were, in that order, 159 nM and 687 nM.
With `CCN(CC)CCCC(C)N/C(=C1\C(=O)NC(=O)\C1=C(/NC(C)CCCN(CC)CC)c1cccc(OC)c1)c1cccc(OC)c1` (centres undefined), the GI50 is 762 nM and the TGI worked out at 1750 nM.
The like results for `CCCCCCCC/C=C/CCCCCCCC1=NC(C)(C)CN1CCO` were, in that order, 1670 nM and 3210 nM.
The like results for `Cn1cc(-c2cnn3c(N)c(Br)c(C4CCCNC4)nc23)cn1` (centres undefined) were, in that order, 11100 nM and 44100 nM.
As for `Clc1ccccc1-c1nnc2c(Cc3ccccc3)nc3ccccc3n12`, the GI50 is 5240 nM and the TGI is greater than 100000 nM.
Take `CN1C(=O)[C@]23SSC1(C)C(=O)N2[C@H]1Nc2ccccc2C1([C@@]12c4ccccc4N[C@@H]1N1C(=O)C4(C)SS[C@]1(C(=O)N4C)[C@H]2O)[C@@H]3O` (some centres undefined): the GI50 was 35.1 nM and 115 nM; the TGI is 103 nM and 322 nM.
Turning to `Cc1cc2c(-c3nc4ccccn4c3N)c(O)c(O)cc2c(O)c1-c1c(C)cc2c(-c3nc4ccccn4c3N)c(O)c(O)cc2c1O`, the GI50 is 538 nM and the TGI amounted to 3520 nM.
As for `Cc1cc(Nc2nc(N[C@@H](C)c3ncc(F)cn3)ncc2Cl)n[nH]1`, the GI50 is 18200 nM and the TGI was 52100 nM.
Turning to `O=[N+]([O-])c1cc([N+](=O)[O-])c(Nn2c3ccccc3c3ccccc32)c([N+](=O)[O-])c1`, the GI50 is 274 nM and the TGI was 782 nM.
`CCOc1ccn(-c2ccc(F)cc2)c(=O)c1C(=O)Nc1ccc(Oc2ccnc(N)c2Cl)c(F)c1`: the GI50 is 5700 nM and the TGI turned out to be 34800 nM.
On the same counts, the results for `CCNC(=O)Oc1ccc(/C(=C(/C)Cc2ccc(OC)cc2)c2ccc(OCCN(CC)CC)cc2)cc1` are 1630 nM and 3460 nM.
On to `CC(=O)C1=C(O)C=C2Oc3c(C(=O)/C=C/c4cc(Cl)cc(Cl)c4)c(O)c(C)c(O)c3[C@]2(C)C1=O`, for which the GI50 was 529 nM and the TGI is 1340 nM.
On to `COc1cc(C2c3cc4c(cc3C(OC(=O)C[n+]3ccccc3)C3COC(=O)C23)OCO4)cc(OC)c1OC` (centres undefined), for which the GI50 is 24.2 nM and the TGI came to 77.7 nM.
For the compound `CO[C@H]1CC(O[C@@H]2/C(C)=C/C[C@@H]3C[C@@H](C[C@]4(CC[C@H](C)[C@@H](C5CCCCC5)O4)O3)OC(=O)[C@@H]3C=C(C)/C(=N/O)[C@H]4OC/C(=C\C=C\[C@@H]2C)[C@]43O)O[C@@H](C)C1O` (some centres undefined), the GI50 was 793 nM and the TGI turned out to be 1760 nM.
The like results for `CCN(Cc1cccc(Cl)c1)c1ccc(CO)c(Cl)c1` were, in that order, 25 nM and 81.7 nM.
With `CC(C)COc1nc2c(c(=O)n(C)c(=O)n2C)n1C`, the GI50 was greater than 100000 nM and the TGI is greater than 100000 nM.
Consider `COc1cc(C(=O)c2cnc(-c3cccc4[nH]ccc34)[nH]2)cc(OC)c1OC`, for which the GI50 was 64.6 nM and < 10 nM; the TGI amounted to 88700 nM.
As to `CC[C@@H](C)/C=C(C)/C=C/C(=O)c1c(O)c(-c2ccc(O)cc2)cn(O)c1=O`, the GI50 was 167 nM and the TGI was found to be 624 nM.
On the same counts, the results for `N#Cc1cnc(Nc2cc(NC[C@H]3CNCCO3)c(C(F)(F)F)cn2)cn1` are 16400 nM and 37400 nM.
As for `O=S(=O)(Nc1ccc(I)c(Cl)c1)c1ccc(-c2cnc(C3CC3)o2)cc1`, the GI50 is 314 nM and the TGI stood at 2650 nM.
On the same counts, the results for `c1ccc(CNCCN(CCNCc2ccccn2)Cc2ccc3ccccc3c2)nc1` are 2180 nM and 4920 nM.
